# pIC50: −log10 of the molar value.
# Test system: 695427-040-R-J1-PDC complex spheroids, viability percent T/C
# Assay: Anticancer human tumor 695427-040-R-J1-PDC patient-derived colon adenocarcinoma cell line growth inhibition [GQUAD]
# Conditions: for pIC50: curve of first compound; for viability, T/C: stronger effect = lower value
# Source text: DNA G-quadruplex Stabilizer Agents in Combinations in Complex Spheroids
# A high-throughput screen of multi-cell type tumor spheroids was designed to identify active combinations of DNA G-quadruplex stabilizer agents and targeted small molecules. Complex spheroids include a stromal component modeled by human endothelial cells (HUVEC) and fibroblasts modeled by human mesenchymal stem cells (MSCs). The concentration ranges selected for each drug and investigational agent were based upon clinically achievable concentrations if the clinical Cmax of the agent was known.
# Compounds. The drugs and investigational agents: pidnarulex (CX-5461; NSC782164), APTO-253 (NSC789042), BRACO-19 (NSC847499), peposertib (NSC802822), ceralasertib (NSC780249), elimusertib (NSC800525), camonsertib (NSC841442), AZD-1390 (NSC803789), olaparib (NSC753686), talazoparib (NSC767125), ART-558 (NSC835418), sotorasib (NSC818433), MRTX-1133 (NSC836407), SN-38 (NSC673596), topotecan (NSC609699), etoposide (NSC141540), doxorubicin (NSC123127), gemcitabine (NSC613327), 5-fluorouracil (NSC19893), paclitaxel (NSC125973), vemurafenib (NSC761431), panobinostat (NSC761190), R-306465 (JNJ-16241199; NSC773264), adavosertib (NSC754352), TP-3654 (NSC805149), carboplatin (NSC241240), KSQ-4279 (NSC840948), and staurosporine (NSC755774) were obtained from the National Cancer Institute (NCI) Developmental Therapeutics Program Chemical Repository (34). The FDA-approved anticancer drug set is available from the NCI Developmental Therapeutics Program. […] The stock solutions were prepared in dimethyl sulfoxide (DMSO, Sigma-Aldrich, St. Louis, MO, cat. D2650) at 800-fold the tested concentration and stored at -70 degrees C prior to their use. All drugs and investigational agents were tested over a range starting from a high concentration at or near the clinical Cmax and decreasing in half-log increments. If the clinical Cmax for an agent had not been determined, the highest concentration tested was 10 microM.
# 2.3 Cell Culture. All cells were maintained in an incubator at 37 degrees C and 5% CO2 with 95% humidity. The PDC lines were cultured according to standard operating procedures established by the NCI PDMR. All PDCs were thawed and cultured in Matrigel-coated flasks prepared with a working solution of 1X Ham's F-12 nutrient mix, without supplementation (Invitrogen, cat. 11765054), 100 U/mL penicillin-streptomycin (Invitrogen, cat. 15140122), and 2.5% Matrigel (Corning Inc., cat. 354248) for the first three passages. The 857933-349-R-J2-PDC line was cultured in 6C/Colon 1B media, which includes advanced DMEM/F-12 (Thermo Fisher Scientific, cat. 12634028), 10 mM HEPES (Thermo Fisher Scientific, cat. 15630080), 1X GlutaMAX supplement (Thermo Fisher Scientific, cat. 35050061), 0.1 mg/mL primocin (InvivoGen, cat. ant-pm-2), 10% defined fetal bovine serum, heat inactivated (HyClone Laboratories Inc., cat. SH30070.03HI), 50% L-WRN conditioned media (ATCC, cat. CRL-3276), 1.25 mM N-Acetyl-L-cysteine (Sigma-Aldrich, cat. A9165), 10 mM nicotinamide (Sigma-Aldrich, cat. N0636), 1X B-27 supplement (Thermo Fisher Scientific, cat. 17504044), 1X N-2 supplement (Thermo Fisher Scientific, cat. 17502048), 10 microM Y-27632 dihydrochloride (Tocris Bioscience, cat. 1254), and 50 ng/mL human EGF recombinant protein (Thermo Fisher Scientific, cat. PHG0311). The 485176-168-R4-J1-PDC line was cultured in Panc media, which includes all 6C/Colon 1B media components plus 100 ng/mL human FGF-10 (Thermo Fisher Scientific, cat. 100-26), 500 nM SB-431542 (Selleckchem, cat. S1067), and gastrin (Tocris, cat. 3006).
# […]
# [1] = second compound 0.0316 µM, first compound 0.0316 µM
# [2] = second compound 0.0316 µM, first compound 0.1 µM
# [3] = second compound 0.0316 µM, first compound 0.316 µM
# [4] = second compound 0.0316 µM, first compound 1 µM
# [5] = second compound 0.0316 µM, first compound 3.16 µM
# [6] = second compound 0.0316 µM, first compound 10 µM
# [7] = second compound 0.1 µM, first compound 0.0316 µM
# [8] = second compound 0.1 µM, first compound 0.1 µM
# [9] = second compound 0.1 µM, first compound 0.316 µM
# [10] = second compound 0.1 µM, first compound 1 µM
# [11] = second compound 0.1 µM, first compound 3.16 µM
# [12] = second compound 0.1 µM, first compound 10 µM
# [13] = second compound 0.316 µM, first compound 0.0316 µM
# [14] = second compound 0.316 µM, first compound 0.1 µM
# [15] = second compound 0.316 µM, first compound 0.316 µM
# [16] = second compound 0.316 µM, first compound 1 µM
# [17] = second compound 0.316 µM, first compound 3.16 µM
# [18] = second compound 0.316 µM, first compound 10 µM
# [19] = second compound 1 µM, first compound 0.0316 µM
# [20] = second compound 1 µM, first compound 0.1 µM
# [21] = second compound 1 µM, first compound 0.316 µM
# [22] = second compound 1 µM, first compound 1 µM
# [23] = second compound 1 µM, first compound 3.16 µM
# [24] = second compound 1 µM, first compound 10 µM
# [25] = second compound 3.16 µM, first compound 0.0316 µM
# [26] = second compound 3.16 µM, first compound 0.1 µM
# [27] = second compound 3.16 µM, first compound 0.316 µM
# [28] = second compound 3.16 µM, first compound 1 µM
# [29] = second compound 3.16 µM, first compound 3.16 µM
# [30] = second compound 3.16 µM, first compound 10 µM
# [31] = second compound 10 µM, first compound 0.0316 µM
# [32] = second compound 10 µM, first compound 0.1 µM
# [33] = second compound 10 µM, first compound 0.316 µM
# [34] = second compound 10 µM, first compound 1 µM
# [35] = second compound 10 µM, first compound 3.16 µM
# [36] = second compound 10 µM, first compound 10 µM
# 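Further: spheroids exposed to compounds for seven days before readout.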
smiles,measurement,setting,value
O=C(NO)c1cnc(N2CCN(S(=O)(=O)c3ccc4ccccc4c3)CC2)nc1 + CN(C)c1ccc(Nc2c3ccc(NC(=O)CCN4CCCC4)cc3nc3cc(NC(=O)CCN4CCCC4)ccc23)cc1,pIC50,second compound 0.0316 µM,6.37
same,pIC50,second compound 0.1 µM,6.34
same,pIC50,second compound 0.316 µM,6.37
same,pIC50,second compound 1 µM,6.40
same,pIC50,second compound 3.16 µM,6.35
same,pIC50,second compound 10 µM,6.44
same,"viability, T/C",[1],98.9%
same,"viability, T/C",[2],93.1%
same,"viability, T/C",[3],66.5%
same,"viability, T/C",[4],4.08%
same,"viability, T/C",[5],0.2%
same,"viability, T/C",[6],0.24%
same,"viability, T/C",[7],107%
same,"viability, T/C",[8],91.7%
same,"viability, T/C",[9],72.4%
same,"viability, T/C",[10],3.81%
same,"viability, T/C",[11],0.24%
same,"viability, T/C",[12],0.42%
same,"viability, T/C",[13],100%
same,"viability, T/C",[14],101%
same,"viability, T/C",[15],67.1%
same,"viability, T/C",[16],3.52%
same,"viability, T/C",[17],0.21%
same,"viability, T/C",[18],0.44%
same,"viability, T/C",[19],97.1%
same,"viability, T/C",[20],87.9%
same,"viability, T/C",[21],62.3%
same,"viability, T/C",[22],3.42%
same,"viability, T/C",[23],0.2%
same,"viability, T/C",[24],0.29%
same,"viability, T/C",[25],90.7%
same,"viability, T/C",[26],89.5%
same,"viability, T/C",[27],70%
same,"viability, T/C",[28],3.74%
same,"viability, T/C",[29],0.28%
same,"viability, T/C",[30],0.31%
same,"viability, T/C",[31],84%
same,"viability, T/C",[32],84.4%
same,"viability, T/C",[33],56.8%
same,"viability, T/C",[34],3.35%
same,"viability, T/C",[35],0.35%
same,"viability, T/C",[36],0.32%
O=c1[nH]cc(F)c(=O)[nH]1 + CN(C)c1ccc(Nc2c3ccc(NC(=O)CCN4CCCC4)cc3nc3cc(NC(=O)CCN4CCCC4)ccc23)cc1,pIC50,second compound 0.0316 µM,< 5.00
same,pIC50,second compound 0.1 µM,< 5.00
same,pIC50,second compound 0.316 µM,< 5.00
same,pIC50,second compound 1 µM,< 5.00
same,pIC50,second compound 3.16 µM,< 5.00
same,pIC50,second compound 10 µM,< 5.00
same,"viability, T/C",[1],101%
same,"viability, T/C",[2],90.5%
same,"viability, T/C",[3],90.5%
same,"viability, T/C",[4],92.6%
same,"viability, T/C",[5],95.5%
same,"viability, T/C",[6],97.5%
same,"viability, T/C",[7],103%
same,"viability, T/C",[8],90.1%
same,"viability, T/C",[9],94.9%
same,"viability, T/C",[10],83.8%
same,"viability, T/C",[11],99.8%
same,"viability, T/C",[12],91.5%
same,"viability, T/C",[13],106%
same,"viability, T/C",[14],100%
same,"viability, T/C",[15],99.7%
same,"viability, T/C",[16],92.8%
same,"viability, T/C",[17],94.7%
same,"viability, T/C",[18],94.5%
same,"viability, T/C",[19],103%
same,"viability, T/C",[20],96.9%
same,"viability, T/C",[21],98%
same,"viability, T/C",[22],96.9%
same,"viability, T/C",[23],97.7%
same,"viability, T/C",[24],92.5%
same,"viability, T/C",[25],92.1%
same,"viability, T/C",[26],100%
same,"viability, T/C",[27],90.3%
same,"viability, T/C",[28],88.3%
same,"viability, T/C",[29],90.5%
same,"viability, T/C",[30],91%
same,"viability, T/C",[31],87.8%
same,"viability, T/C",[32],92.6%
same,"viability, T/C",[33],78%
same,"viability, T/C",[34],82.4%
same,"viability, T/C",[35],85.7%
same,"viability, T/C",[36],83.4%

# Reference: PubChem BioAssay AID2060492 (Molecular Pharmacology Branch, DTP, NCI, 2025)
